Source: US6660742B2, “Compositions and methods of the use thereof achiral analogues of CC-1065 and the duocarmycins” (priority 2000, dated 2003)

Tested on: COLO 205
Assay: NCI screen, COLO 205 (Colon Cancer)
Assay type: cell-based, human
Protocol: The compounds of this invention were also tested against the panel of 60 human cancer cell lines at the National Cancer Institute, Bethesda, Md. […] The cytrotoxicity studies were conducted using a 48 hour exposure, and measuring the optical density of sulforhodamide B-derived color.

`COC(=O)c1[nH]c2c(O)cc(NC(=O)c3cc4cc(OC)c(OC)c(OC)c4[nH]3)c(CCCl)c2c1C(=O)OC` [Compound 22, Dimethyl 4-(2-chloroethyl)-7-hydroxy-5-(5,6,7-trimethoxyindole-2-carboxamido)indole-2,3-dicarboxylate] was tested, and the TGI (48 hour exposure) was >5.00E−05 Molar, the “Percent Growth” value (Log10 Concentration −4.3, 48 hour exposure) was 20% and the “Percent Growth” value (Log10 Concentration −5.3, 48 hour exposure) was 23%. The “Percent Growth” value (Log10 Concentration −6.3, 48 hour exposure) was 31%, the “Percent Growth” value (Log10 Concentration −7.3, 48 hour exposure) was 88% and the “Percent Growth” value (Log10 Concentration −8.3, 48 hour exposure) was 95%.
